Assay results taken from patent US20240108623A1, “METHODS OF TREATING CANCER WITH POZIOTINIB” (BOARD OF REGENTS, THE UNIVERSITY OF TEXAS SYSTEM, priority 2021, published 2024).

Legend:
Assay in all cases: Ba/F3 cell drug screening, Cell Titer Glo
Type in all cases: cell-based
EGFR A763insLQEA = target: T1, EGFR A763insLQEA (Homo sapiens, UniProt P00533, INS763LQEA); details: Ba/F3 cells expressing EGFR A763insLQEA; 72 hours
T1 construct: expressed in transfected cells; host or cells: Ba/F3 (retroviral, pBabe-Puro based vector)
Procedure: (§1) Ba/F3 cell generation, drug screening, and IC50 approximations. Ba/F3 cells were obtained as a gift from Dr. Gordon Mills (MD Anderson Cancer Center), and maintained in RPMI (Sigma) containing 10% FBS, 1% penicillin/streptomycin, and 10 ng/ml recombinant mIL-3 (R&D Biosystems). To establish stable Ba/F3 cell lines, Ba/F3 cells were transduced with retroviruses containing mutant EGFR plasmids for 12-24 hours. Retroviruses were generated using Lipofectamine 2000 (Invitrogen) transfections of Phoenix 293T-ampho cells (Orbigen) with pBabe-Puro based vectors listed below in Table 6. Vectors were generated by GeneScript or Bioinnovatise using parental vectors from Addgene listed below in Table 6.
(§2) After 48-72 hours of transduction, 2 μg/ml puromycin (Invitrogen) was added to Ba/F3 cell lines in complete RPMI. To select for EGFR positive cell lines, cells were stained with PE-EGFR (Biolegend) and sorted by FACS. After sorting, EGFR positive cells were maintained in RPMI containing 10% FBS, 1% penicillin/streptomycin, and 1 ng/ml EGF to support cell viability. Drug screening was performed as previously described^41,42. Shortly, cells were plated in 384-well plates (Greiner Bio-One) at 2000-3000 cells per well in technical triplicate. Seven different concentrations of TKIs or DMSO vehicle were added to reach a final volume of 40 μL per well. After 72 hours, 11p L of Cell Titer Glo (Promega) was added to each well. Plates were incubated for a minimum of 10 minutes, and bioluminescence was determined using a FLUOstar OPTIMA plate reader (BMG LABTECH). Raw bioluminescence values were normalized to DMSO control treated cells, and values were plotted in GraphPad Prism. Non-linear regressions were used to fit the normalized data with a variable slope, and IC50 values were determined by GraphPad prism by interpolation of concentrations at 50% inhibition. Drug screens were performed in technical triplicate on each plate and either duplicate or triplicate biological replicates. Mutant to WT ratios (Mut/WT) for each drug were calculated by dividing the IC50 values of mutant cell lines by the average IC50 value of Ba/F3 cells expressing WT EGFR supplemented with 10 ng/ml EGF for each drug. Statistical differences between groups were determined by ANOVA as described in the figure legends.

EGFR Ex19del L718V = target: T2, EGFR Ex19del L718V (Homo sapiens, UniProt P00533, DEL746-750/L718V); details: Ba/F3 cells expressing EGFR Ex19del L718V; 72 hours
T2 construct: expressed in transfected cells; host or cells: Ba/F3 (murine pro-B cells), retroviral transduction with pBabe-Puro based vectors
Procedure: as §1, §2

EGFR Ex19del T790M L718V = target: T3, EGFR Ex19del T790M L718V (Homo sapiens, UniProt P00533, DEL746-750/L718V/T790M); details: Ba/F3 cells expressing EGFR Ex19del T790M L718V; 72 hours
T3 construct: expressed in transfected cells; host or cells: Ba/F3 (retroviral transduction, pBabe-Puro based vectors)
Procedure: as §1, §2

EGFR Ex19del/L792H = target: T4, EGFR Ex19del/L792H (Homo sapiens, UniProt P00533, DEL746-750/L792H); details: Ba/F3 cells expressing EGFR Ex19del/L792H; 72 hours
T4 construct: expressed in transfected cells; host or cells: Ba/F3 (retroviral transduction, pBabe-Puro based vectors)
Procedure: as §1, §2

EGFR G719A/R776C = target: T5, EGFR G719A/R776C (Homo sapiens, UniProt P00533, G719A/R776C); details: Ba/F3 cells expressing EGFR G719A/R776C; 72 hours
T5 construct: expressed in transfected cells; host or cells: Ba/F3 (retroviral transduction, pBabe-Puro based vectors)
Procedure: as §1, §2

EGFR I740dupIPVAK = details: Ba/F3 cells expressing EGFR I740dupIPVAK; 72 hours
Procedure: as §1, §2

EGFR K757R = target: T6, EGFR K757R (Homo sapiens, UniProt P00533, K757R); details: Ba/F3 cells expressing EGFR K757R; 72 hours
T6 construct: expressed in transfected cells; host or cells: Ba/F3 (retroviral transduction, pBabe-Puro based vectors)
Procedure: as §1, §2

EGFR L718Q = target: T7, EGFR L718Q (Homo sapiens, UniProt P00533, L718Q); details: Ba/F3 cells expressing EGFR L718Q; 72 hours
T7 construct: expressed in transfected cells; host or cells: Ba/F3 (retroviral transduction, pBabe-Puro based vectors)
Procedure: as §1, §2

EGFR L858R G724S = target: T8, EGFR L858R G724S (Homo sapiens, UniProt P00533, G724S/L858R); details: Ba/F3 cells expressing EGFR L858R G724S; 72 hours
T8 construct: expressed in transfected cells; host or cells: Ba/F3 (murine pro-B cells), retroviral transduction with pBabe-Puro based vectors
Procedure: as §1, §2

EGFR L858R/T790M/L718Q = target: T9, EGFR L858R/T790M/L718Q (Homo sapiens, UniProt P00533, L718Q/L858R/T790M); details: Ba/F3 cells expressing EGFR L858R/T790M/L718Q; 72 hours
T9 construct: expressed in transfected cells; host or cells: Ba/F3 (retroviral transduction, pBabe-Puro based vectors)
Procedure: as §1, §2

EGFR L861Q = target: T10, EGFR L861Q (Homo sapiens, UniProt P00533, L861Q); details: Ba/F3 cells expressing EGFR L861Q; 72 hours
T10 construct: expressed in transfected cells; host or cells: Ba/F3 (retroviral, pBabe-Puro based vector)
Procedure: as §1, §2

EGFR S768I/T790M = target: T11, EGFR S768I/T790M (Homo sapiens, UniProt P00533, S768I/T790M); details: Ba/F3 cells expressing EGFR S768I/T790M; 72 hours
T11 construct: expressed in transfected cells; host or cells: Ba/F3 (retroviral transduction, pBabe-Puro based vectors)
Procedure: as §1, §2

EGFR S768dupSVD V769M = target: T12, EGFR S768dupSVD V769M (Homo sapiens, UniProt P00533, INS768MDS/V769M); details: Ba/F3 cells expressing EGFR S768dupSVD V769M; 72 hours
T12 construct: expressed in transfected cells; host or cells: Ba/F3 (retroviral, pBabe-Puro based vector; created by GeneScript from EGFR S768dupSVD, c.2305G > A)
Procedure: as §1, §2

EGFR S784F = target: T13, EGFR S784F (Homo sapiens, UniProt P00533, S784F); details: Ba/F3 cells expressing EGFR S784F; 72 hours
T13 construct: expressed in transfected cells; host or cells: Ba/F3 (retroviral, pBabe-Puro based vector; created by GeneScript from EGFR WT)
Procedure: as §1, §2

EGFR V774M = target: T14, EGFR V774M (Homo sapiens, UniProt P00533, V774M); details: Ba/F3 cells expressing EGFR V774M; 72 hours
T14 construct: host or cells: Ba/F3 (retroviral transduction, pBabe-Puro based vectors)
Procedure: as §1, §2

C=CC(=O)N1CCC(Oc2cc3c(Nc4ccc(Cl)c(Cl)c4F)ncnc3cc2OC)CC1 [Poziotinib]
Response of Cells Comprising Classical-Like EGFR Mutations to Second-Generation TKIs (EGFR A763insLQEA): 0.01607 | Response of Cells Comprising PACC EGFR Mutations to Second-Generation TKIs (EGFR Ex19del L718V): 0.003363 | Response of Cells Comprising T790M-like-S EGFR Mutations to Second-Generation TKIs (EGFR Ex19del T790M L718V): 15.89 | Response of Cells Comprising PACC EGFR Mutations to Second-Generation TKIs (EGFR Ex19del/L792H): 0.3177 | Response of Cells Comprising PACC EGFR Mutations to Second-Generation TKIs (EGFR G719A/R776C): 0.01624 | Response of Cells Comprising PACC EGFR Mutations to Second-Generation TKIs (EGFR I740dupIPVAK): 0.02483 | Response of Cells Comprising PACC EGFR Mutations to Second-Generation TKIs (EGFR K757R): 0.07563 | Response of Cells Comprising PACC EGFR Mutations to Second-Generation TKIs (EGFR L718Q): 0.1927 | Response of Cells Comprising PACC EGFR Mutations to Second-Generation TKIs (EGFR L858R G724S): 0.0068 | Response of Cells Comprising T790M-like-R EGFR Mutations to Second-Generation TKIs (EGFR L858R/T790M/L718Q): 70.12 | Response of Cells Comprising Classical-Like EGFR Mutations to Second-Generation TKIs (EGFR L861Q): 0.02499 | Response of Cells Comprising T790M-like-S EGFR Mutations to Second-Generation TKIs (EGFR S768I/T790M): 2.935 | Response of Cells Comprising Ex20ins EGFR Mutations to Poziotinib (EGFR S768dupSVD V769M): 0.07874 | Response of Cells Comprising Classical-Like EGFR Mutations to Second-Generation TKIs (EGFR S784F): 0.08572 | Response of Cells Comprising PACC EGFR Mutations to Second-Generation TKIs (EGFR V774M): 0.01859
